In patent US20080269201A1, “Azepane- or Azocane-Substituted Pyrazoline Derivatives, Their Preparation and Use as Medicaments” (LABORATORIOS DEL DR. ESTEVE, S.A., priority 2005, published 2008):

Experiments:
[1] = target: T1, transfected human CB1 receptor (Homo sapiens, UniProt P21554); assay: In-vitro determination of affinity to CB1/CB2 receptors, radioligand [3H]-CP55940; settings: binding to CB1/CB2 receptors as described, table does not name the subtype, text points to CB1
T1 construct: purchased Receptor Biology, Inc
T1 sequence (P21554 whole entry): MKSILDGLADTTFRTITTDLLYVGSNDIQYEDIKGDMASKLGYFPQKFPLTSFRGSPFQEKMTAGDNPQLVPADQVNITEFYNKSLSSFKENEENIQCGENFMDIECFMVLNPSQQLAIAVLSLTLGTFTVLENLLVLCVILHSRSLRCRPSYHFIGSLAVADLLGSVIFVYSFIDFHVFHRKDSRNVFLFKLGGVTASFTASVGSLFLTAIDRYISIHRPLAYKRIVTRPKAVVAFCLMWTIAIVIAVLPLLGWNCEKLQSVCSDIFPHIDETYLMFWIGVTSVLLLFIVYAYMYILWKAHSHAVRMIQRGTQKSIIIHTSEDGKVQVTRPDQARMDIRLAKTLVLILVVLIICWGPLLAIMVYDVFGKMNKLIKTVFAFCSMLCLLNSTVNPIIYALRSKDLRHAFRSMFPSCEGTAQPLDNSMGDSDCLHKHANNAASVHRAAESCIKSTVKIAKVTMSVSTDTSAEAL
Protocol: The in-vitro determination of the affinity of the inventive quaternary ammonium salts of substituted pyrazoline compounds to CB1/CB2-Rezeptors is carried out as described in the publication of Ruth A. Ross, Heather C. Brockie et al., “Agonist-inverse agonist characterization at CB1 and CB2 cannabinoid receptors of L-759633, L759656 and AM630”, British Journal of Pharmacology, 126, 665-672, (1999), whereby the transfected human CB1 and CB2 receptors of Receptor Biology, Inc. are used. The radioligand used for both receptors is [^3H]-CP55940. The respective parts of the description are hereby incorporated by reference and forms part of the present disclosure.
The affinity of the inventive substituted pyrazoline compounds to CB1/CB2 receptors was determined as described above.

[2] = target: T2, recombinant human cannabinoid 1 receptor (CB1), CHO cell membranes (Homo sapiens, UniProt P21554); assay: [35S]GTPγS binding assay, antagonism against WIN 55,212-2; type: biochemical; settings: compound at 1 μM against WIN 55,212-2 dose response; 100% = effect of internal standard CB1-antagonist
T2 construct: expressed in transfected cells; membranes prepared
T2 sequence (P21554 whole entry): as above
Protocol: Chinese hamster ovary (CHO) cells stably expressing recombinant human cannabinoid 1 receptor (CB1) were cultured in nutrient mixture Ham's F 12 supplemented with 10% heat-inactivated fetal bovine serum, 2 mM L-glutamine, 50 U/ml penicillin, 50 U/ml streptomycin and 0.5 mg/ml geneticin. In order to obtain cells, culture flasks were washed twice with phosphate buffered saline and scraped. Then, cells were collected by centrifugation (200×g, 10 min) and stored dry at −80° C. Cells were homogenized in ice-cold 20 mM HEPES, 10 mM EDTA (pH 7.5) and centrifuged at 40,000×g for 15 min at 4° C. The pellet was resuspended in 20 mM HEPES, 0.1 mM EDTA (pH 7.5) and centrifuged for 15 min at 4° C. The final pellet was resuspended in 20 mM HEPES, 0.1 mM EDTA (pH 7.5), and divided in aliquots and stored at −80° C. until use.
The reaction was performed in 96-well plates. Membranes (15 µg protein/well) were incubated for 60 min at 30° C. in buffer (50 mM HEPES, 100 mM KCl, 5 mM MgCl2, 1 mM EDTA, 0.1% wt/vol bovine serum albumin, […], saponin (10 μg/ml), 0.5 nM [^35S]GTPγS, pH 7.4) with compound at 1 μM final concentration in either the absence or presence of dose response curve of agonist WIN 55, 212-2 between 3 nM and 3 μM. The incubation was terminated by rapid filtration through Millipore Multiscreen glass fiber FB, and rinsed two-times with ice-cold assay buffer. Filter plates were dried and 30 μl of scintillation liquid was added. Radioactivity was determined using Wallac Microbeta Trilux. Each experiment was performed at least in duplicate. A WIN 55, 212-2 dose-response was systematically performed.
The average of basal [^35S]GTPγS binding was subtracted from all binding data. In order to compare the antagonism results from one screening campaign to another one, the difference between the maximal agonist effect of WIN 55, 212-2 alone, and the maximal antagonism effect due to WIN 55, 212-2 with an internal standard CB1-antagonist was defined as 100%.
The determination of cannabinoid activity in-vivo was determined as described above.

[3] = In vivo testing for antiobesic activity, acute treatment; settings: rats, acute oral administration, HCl-salts; body weight difference vs control
Protocol: Normally handled rats were habituated to a reversed cycle 12/12 h, and the compound as well as saline was acutely orally administered. After administration the cumulated food intake (g) was measured at 6 h and 23 h. Following that the difference in body weight between control and compound treated animals was measured.

SMILES | IC50 [1] | Antagonism (%) [2] | Antiobesic activity (reducing weight) [3]
C[C@H]1C(C(=O)NN2CCCCCC2)=NN(c2ccc(Cl)cc2Cl)[C@H]1c1ccc(Cl)cc1.Cl (relative stereo) [Example 1, cis-N-(azepan-1-yl)-5-(4-chlorophenyl)-1-(2,4-dichlorophenyl)-4-methyl-4,5-dihydro-1H-pyrazole-3-carboxamide hydrochloride] | 7.9 ± 2.8 nM | 99 ± 5% | active in this model, reducing weight
C[C@H]1C(C(=O)NN2CCCCCC2)=NN(c2ccc(Cl)cc2Cl)[C@H]1c1ccc(Br)cc1.Cl (relative stereo) [Example 5, cis-N-(azepan-1-yl)-5-(4-bromophenyl)-1-(2,4-dichlorophenyl)-4-methyl-4,5-dihydro-1H-pyrazole-3-carboxamide hydrochloride] | 71 ± 2 nM | 133 ± 5% | active in this model, reducing weight
C[C@H]1C(C(=O)NN2CCCCCC2)=NN(c2ccc(Cl)cc2Cl)[C@H]1c1ccc(F)cc1.Cl (relative stereo) [7 (HCl), cis-N-(azepan-1-yl)-5-(4-fluorophenyl)-1-(2,4-dichlorophenyl)-4-methyl-4,5-dihydro-1H-pyrazole-3-carboxamide hydrochloride] | 122 nM | 83 ± 6% | 
C[C@H]1C(C(=O)NN2CCCCCC2)=NN(c2ccc(Cl)cc2Cl)[C@H]1c1ccc(F)cc1 [Example 7] |  | 52% | 
COc1ccc([C@H]2[C@@H](C)C(C(=O)NN3CCCCCC3)=NN2c2ccc(Cl)cc2Cl)cc1.Cl (relative stereo) [Example 9, cis-N-(azepan-1-yl)-1-(2,4-dichlorophenyl)-5-(4-methoxyphenyl)-4-methyl-4,5-dihydro-1H-pyrazole-3-carboxamide hydrochloride] | 61 nM | 117 ± 5% | active in this model, reducing weight
